From BindingDB's records for doi:10.1016/j.bmc.2019.115214 (Nankai University, 2020)
pIC50: −log10 of the molar value.

Test: Inhibition of HIV1 gp41- induced cell-cell fusion between viral envelope expressed in human HL2/3 cells to CD4/CCR5 receptor expressed TZM-bl cells after 6 hrs by luciferase assay

Row | pIC50 | Substance
1 | 7.09 | H-RIQQIEQKIHHIEQRIQQIEQRISGIVQQQNNLLRIEAQQHLLQLTVWGIKQLQARIL-OH
2 | 7.41 | H-RIQQIEQKIHHIEQRIQQIEQRIEAQQHLLQLTVWGIKQLQARIL-OH
3 | 8.60 | H-YTSLIHSLIEEQNQQEKNEQELLELDKWALWNWF-OH
4 | 6.60 | H-RIQQIEQKIHHIEQRIQQIEQLLQLTVWGIKQLQARIL-OH
